Assay results reported in patent publication US5370997A, “Hyperthermostable alpha-amylase” (Novo Nordisk A/S, priority 1989, dated 1994).

How the values were obtained:
[1] = target: extracellular α-amylase from Pyrococcus furiosus (partially purified) (Pyrococcus furiosus, UniProt Q8U3I9); conditions: EDTA concentration not given
Protocol: In order to conduct physiochemical investigations the extracellular amylase was partially purified by gelfiltration. All experiments were performed in the absence of metal ions and under aerobic conditions.

[2] = target: α-amylase from Pyrococcus woesei (partially purified) (Pyrococcus woesei, UniProt Q7LYT7); test: biochemical; conditions: 40 min, pH 5.5, read-out: enzyme activity measured in percent
Chain of α-amylase from Pyrococcus woesei (partially purified) (Q7LYT7 26-460): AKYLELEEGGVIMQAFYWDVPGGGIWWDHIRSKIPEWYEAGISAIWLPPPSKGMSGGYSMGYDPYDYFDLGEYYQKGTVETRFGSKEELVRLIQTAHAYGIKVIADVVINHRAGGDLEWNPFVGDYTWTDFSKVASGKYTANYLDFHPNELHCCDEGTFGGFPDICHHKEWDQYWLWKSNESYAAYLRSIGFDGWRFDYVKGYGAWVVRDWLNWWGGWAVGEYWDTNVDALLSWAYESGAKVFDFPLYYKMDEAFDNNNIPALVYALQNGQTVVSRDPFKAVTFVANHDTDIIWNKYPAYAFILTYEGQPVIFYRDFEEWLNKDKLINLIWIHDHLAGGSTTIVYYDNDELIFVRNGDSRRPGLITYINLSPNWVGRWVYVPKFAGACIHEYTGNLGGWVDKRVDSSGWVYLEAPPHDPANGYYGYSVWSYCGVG
Protocol: The influence of metal cations and EDTA on the activity of α-amylase from P. woesei was performed with enzyme which was partially purified by gelfiltration on a Supsrose 12 column (Pharmacia, Sweden), see Table 2. The fractions containing α-amylase were collected and concentrated 4-fold. 25 μl of enzyme (400 U/l) were added to 100 μl of sodium acetate buffer (50 mM, pH 5.5) containing 1% (w/v) starch. Metal cations, which were dissolved in sodium acetate buffer (100 mM, pH 5.5), were added in various concentrations. Incubation was conducted in a glycerin bath (100° C.) for 40 min. The reducing sugars were finally detected as described by Bergmeyer and Grassi (supra). The values represent the enzyme activity measured in percent.

Chain of extracellular α-amylase from Pyrococcus furiosus (partially purified) (Q8U3I9 39-473): as the sequence (Q7LYT7 26-460) above

**Q.** With `O=C(O)CN(CCN(CC(=O)O)CC(=O)O)CC(=O)O` [EDTA] as the compound, how does the “influence on amylase activity” value [1] read?
**A.** did not have any influence

**Q.** And the remaining activity at 1000 µM [2]?
**A.** 95%

**Q.** What about the remaining activity at 2000 µM [2] of the same compound?
**A.** 85%

**Q.** What about the remaining activity at 5000 µM [2] of the same compound?
**A.** 60%
